Reference: article PMC10683028 (Journal of Medicinal Chemistry, 2023)
Converted amounts (≈) assume the structure as drawn. Where two headings read alike, the source gives them in different places.

How the values were obtained:
[1] = pH 7.4
Protocol: Test compounds were prepared as 0.5 mM solutions in 50:50 acetonitrile:water and analyzed by reversed-phase HPLC-UV (wavelength 254 nm) using a Phenomenex Luna C18 100 Å 150 × 4.6 mm 5 μm column with a gradient of aqueous phase (50 mM ammonium acetate, pH 7.4) and mobile phase (acetonitrile) as described.[41],[42]

in vitro = settings: PAMPA, pH 7.4
Protocol: (§1) In vitro ADME experiments were performed exactly as reported.[38]−[40]

[2] = mouse
Protocol: Murine pharmacokinetic studies were performed exactly as reported.[40]

physchem = settings: aqueous medium at pH 7.4, pH 7.4
Protocol: as §1

Row | SMILES | CHI-logDpH7.4 [1] | Papp (in vitro) | further results
1 | O=C(NCCc1ccccc1)c1nc(-c2ccccc2)no1 [compound 4, 3-Phenyl-N-(2-phenylethyl)-1,2,4-oxadiazole-5-carboxamide] | 3.2 |  | 
2 | COc1ccc(-c2noc(C(=O)NCCc3cccnc3)n2)cc1OC [compound 5, 3-(3,4-Dimethoxyphenyl)-N-[2-(3-pyridyl)ethyl]-1,2,4-oxadiazole-5-carboxamide] | 1.8 | 7.7 ×10⁻⁶ cm/s | 
3 | COc1ccc(-c2noc(C(=O)NCCc3ccc(C(=O)O)cc3)n2)cc1OC [compound 6, 4-[2-[[3-(3,4-Dimethoxyphenyl)-1,2,4-oxadiazole-5-carbonyl]amino]ethyl]benzoic Acid] |  | 0.6 ×10⁻⁶ cm/s | 
4 | COc1ccc(-c2noc(C(=O)NCC(C)(C)c3ccccc3)n2)cc1OC [compound 7, 3-(3,4-Dimethoxyphenyl)-N-(2-methyl-2-phenyl-propyl)-1,2,4-oxadiazole-5-carboxamide] | 3.7 |  | 
5 | COc1ccc(-c2noc(C(=O)NC[C@H](C)c3ccccc3)n2)cc1OC [compound 8, 3-(3,4-Dimethoxyphenyl)-N-[(2R)-2-phenylpropyl]-1,2,4-oxadiazole-5-carboxamide] | 3.3 | 5.5 ×10⁻⁶ cm/s | 
6 | COc1ccc(-c2noc(C(=O)NCCc3ccc(C(N)=O)cc3)n2)cc1OC [compound 11, N-[2-(4-Carbamoylphenyl)ethyl]-3-(3,4-dimethoxyphenyl)-1,2,4-oxadiazole-5-carboxamide] | 1.7 | 2.9 ×10⁻⁶ cm/s | 
7 | CNC(=O)c1ccc(CCNC(=O)c2nc(-c3ccc(OC)c(OC)c3)no2)cc1 [compound 12, 3-(3,4-Dimethoxyphenyl)-N-[2-[4-(methylcarbamoyl)phenyl]ethyl]-1,2,4-oxadiazole-5-carboxamide] | 1.8 | 4.8 ×10⁻⁶ cm/s | 
8 | COc1ccc(-c2noc(C(=O)NCCc3ccc(C(=O)N4CCC4)cc3)n2)cc1OC [compound 14, N-[2-[4-(Azetidine-1-carbonyl)phenyl]ethyl]-3-(3,4-dimethoxyphenyl)-1,2,4-oxadiazole-5-carboxamide] | 2.1 | 7.1 ×10⁻⁶ cm/s | 
9 | COc1ccc(-c2noc(C(=O)NCCc3ccc(C(=O)N4CC(OC)C4)cc3)n2)cc1OC [compound 15, 3-(3,4-Dimethoxyphenyl)-N-(4-(3-methoxyazetidine-1-carbonyl)phenethyl)-1,2,4-oxadiazole-5-carboxamide] | 2.1 |  | AUC0–480 ([2]; IV 3 mg/kg): 56 µg·min/mL; T1/2 ([2]; IV 3 mg/kg): 18 min; Vdss ([2]; IV 3 mg/kg): 1.1 L/kg; AUC0–480 ([2]; PO 200 mg/kg): 48 µg·min/mL; Cmax ([2]; PO 200 mg/kg): 151 ng/mL; F ([2]; PO 200 mg/kg): 1.5%; Tmax ([2]; PO 200 mg/kg): 120 min
10 | COc1ccc(-c2noc(C(=O)NCCc3ccc(C(=O)N4CC(F)C4)cc3)n2)cc1OC [compound 16, 3-(3,4-Dimethoxyphenyl)-N-(4-(3-fluoroazetidine-1-carbonyl)phenethyl)-1,2,4-oxadiazole-5-carboxamide] | 2.2 | 8.5 ×10⁻⁶ cm/s | 
11 | COc1ccc(-c2noc(C(=O)NCCc3ccc(C(=O)N4CC(F)(F)C4)cc3)n2)cc1OC [compound 17, N-(4-(3,3-Difluoroazetidine-1-carbonyl)phenethyl)-3-(3,4-dimethoxyphenyl)-1,2,4-oxadiazole-5-carboxamide] | 2.6 | 6.3 ×10⁻⁶ cm/s | 
12 | COc1cccc(CCNC(=O)c2nc(-c3ccc(OC)c(OC)c3)no2)c1 [compound 19, 3-(3,4-Dimethoxyphenyl)-N-[2-(3-methoxyphenyl)ethyl]-1,2,4-oxadiazole-5-carboxamide] | 2.9 |  | 
13 | COc1ccc(-c2noc(C(=O)NCCc3ccc(C(=O)N4CCC4)nc3)n2)cc1OC [compound 25, N-(2-(6-(Azetidine-1-carbonyl)pyridin-3-yl)ethyl)-3-(3,4-dimethoxyphenyl)-1,2,4-oxadiazole-5-carboxamide] | 1.9 | 5.4 ×10⁻⁶ cm/s | 
14 | COc1ccc(-c2noc(C(=O)NC(C#N)Cc3ccc(C(=O)N4CCC4)cc3)n2)cc1OC (stereo not drawn) [compound 33, N-(2-(4-(Azetidine-1-carbonyl)phenyl)-1-cyanoethyl)-3-(3,4-dimethoxyphenyl)-1,2,4-oxadiazole-5-carboxamide] | 2.1 | 2.8 ×10⁻⁶ cm/s | 
15 | COc1ccc(-c2noc(C(=O)NC(C#N)Cc3ccccc3)n2)cc1OC (stereo not drawn) [compound 38, N-(1-Cyano-2-phenylethyl)-3-(3,4-dimethoxyphenyl)-1,2,4-oxadiazole-5-carboxamide] | 3.1 | 7.2 ×10⁻⁶ cm/s | 
16 | COc1ccc(-c2noc(C(=O)NC(C#N)Cc3ccc(C(=O)N4CC5(COC5)C4)cc3)n2)cc1OC (stereo not drawn) [compound 44, N-(2-(4-(2-Oxa-6-azaspiro[3.3]heptane-6-carbonyl)phenyl)-1-cyanoethyl)-3-(3,4-dimethoxyphenyl)-1,2,4-oxadiazole-5-carboxamide] | 2.1 | 0.6 ×10⁻⁶ cm/s | AUC0–480 ([2]; PO 10 mg/kg): 5 µg·min/mL; Cmax ([2]; PO 10 mg/kg): 56 ng/mL; Tmax ([2]; PO 10 mg/kg): 300 min
17 | COc1ccc(-c2noc(C(=O)NC(C#N)Cc3ccc(C(=O)N4CC(OC)C4)cc3)n2)cc1OCC1(O)CC1 (stereo not drawn) [compound 45, N-[1-Cyano-2-[4-(3-methoxyazetidine-1-carbonyl)phenyl]ethyl]-3-[3-[(1-hydroxycyclopropyl)methoxy]-4-methoxyphenyl]-1,2,4-oxadiazole-5-carboxamide] |  |  | solubility (physchem): 152 µM (≈ 83.2 µg/mL)
18 | COc1ccc(CCNC(=O)c2nc(-c3ccc(OC)c(OC)c3)no2)cc1OC [compound 50, 3-(3,4-dimethoxyphenyl)-N-[2-(3,4-dimethoxyphenyl)ethyl]-1,2,4-oxadiazole-5-carboxamide] | 2.5 | 7.4 ×10⁻⁶ cm/s | 

Row | SMILES | CHI-logDpH7.4 [1] | Papp (in vitro) | further results
19 | COc1ccc(CCN(C)C(=O)c2nc(-c3ccc(OC)c(OC)c3)no2)cc1OC [compound 51, 3-(3,4-Dimethoxyphenyl)-N-[2-(3,4-dimethoxyphenyl)ethyl]-N-methyl-1,2,4-oxadiazole-5-carboxamide] | 2.6 |  | 
20 | COc1ccc(-c2noc(CNCCc3ccccc3)n2)cc1OC [compound 53, N-[[3-(3,4-Dimethoxyphenyl)-1,2,4-oxadiazol-5-yl]methyl]-2-phenyl-ethanamine] | 2.9 |  | 
21 | COc1ccc(-c2noc(C(=O)NCCc3ccc(C(=O)N4CCC4)cc3)n2)cc1F [compound 61, N-(4-(Azetidine-1-carbonyl)phenethyl)-3-(3-fluoro-4-methoxyphenyl)-1,2,4-oxadiazole-5-carboxamide] | 2.6 |  | 
22 | COc1cc(-c2noc(C(=O)NCCc3ccc(C(=O)N4CCC4)cc3)n2)ccc1F [compound 62, N-(4-(Azetidine-1-carbonyl)phenethyl)-3-(4-fluoro-3-methoxyphenyl)-1,2,4-oxadiazole-5-carboxamide] | 2.6 |  | 
23 | O=C(NCCc1ccc(C(=O)N2CCC2)cc1)c1nc(-c2ccc3nc[nH]c3c2)no1 [compound 63, N-(4-(Azetidine-1-carbonyl)phenethyl)-3-(1H-benzo[d]imidazol-6-yl)-1,2,4-oxadiazole-5-carboxamide] | 1.3 | 0.7 ×10⁻⁶ cm/s | 
24 | O=C(NCCc1ccc(C(=O)N2CCC2)cc1)c1nc(-c2ccc3ccoc3c2)no1 [compound 64, N-(4-(Azetidine-1-carbonyl)phenethyl)-3-(benzofuran-6-yl)-1,2,4-oxadiazole-5-carboxamide] | 2.5 | 7 ×10⁻⁶ cm/s | 
25 | O=C(NCCc1ccc(C(=O)N2CCC2)cc1)c1nc(-c2ccc3cc[nH]c3c2)no1 [compound 65, N-(4-(Azetidine-1-carbonyl)phenethyl)-3-(1H-indol-6-yl)-1,2,4-oxadiazole-5-carboxamide] | 2.3 | 4.4 ×10⁻⁶ cm/s | 
26 | O=C(NCCc1ccc(C(=O)N2CCC2)cc1)c1nc(-c2ccc3cn[nH]c3c2)no1 [compound 66, N-(4-(Azetidine-1-carbonyl)phenethyl)-3-(1H-indazol-6-yl)-1,2,4-oxadiazole-5-carboxamide] | 1.6 | 5.5 ×10⁻⁶ cm/s | 
27 | COc1cccc(-c2noc(C(=O)NCCc3ccc(C(=O)N4CCC4)cc3)n2)c1 [compound 67, N-(4-(Azetidine-1-carbonyl)phenethyl)-3-(3-methoxyphenyl)-1,2,4-oxadiazole-5-carboxamide] | 2.4 | 10.1 ×10⁻⁶ cm/s | 
28 | COc1ccc(-c2noc(C(=O)NCCc3ccc(C(=O)N4CC(OC)C4)cc3)n2)cc1OC1CCC1 [compound 78, 3-[3-(Cyclobutoxy)-4-methoxy-phenyl]-N-[2-[4-(3-methoxyazetidine-1-carbonyl)phenyl]ethyl]-1,2,4-oxadiazole-5-carboxamide] | 2.9 |  | 
29 | COc1ccc(-c2noc(C(=O)NCCc3ccc(C(=O)N4CC(OC)C4)cc3)n2)cc1OC1CC1 [compound 79, 3-(3-Cyclopropoxy-4-methoxyphenyl)-N-(4-(3-methoxyazetidine-1-carbonyl)phenethyl)-1,2,4-oxadiazole-5-carboxamide] | 2.6 | 4.6 ×10⁻⁶ cm/s | 
30 | COc1ccc(-c2noc(C(=O)NCCc3ccc(C(=O)N4CC(OC)C4)cc3)n2)cc1OCC1(O)CC1 [compound 80, 3-(3-((1-Hydroxycyclopropyl)methoxy)-4-methoxyphenyl)-N-(4-(3-methoxyazetidine-1-carbonyl)phenethyl)-1,2,4-oxadiazole-5-carboxamide] |  |  | AUC0–480 ([2]; IV 3 mg/kg): 81 µg·min/mL; T1/2 ([2]; IV 3 mg/kg): 24 min; Vdss ([2]; IV 3 mg/kg): 0.9 L/kg; AUC0–480 ([2]; PO 10 mg/kg): 4 µg·min/mL; Cmax ([2]; PO 10 mg/kg): 61 ng/mL; F ([2]; PO 10 mg/kg): 1.5%; Tmax ([2]; PO 10 mg/kg): 30 min
31 | COc1ccc(-c2nc(C(=O)NCCc3ccccc3)no2)cc1OC [compound 90, 5-(3,4-Dimethoxyphenyl)-N-phenethyl-1,2,4-oxadiazole-3-carboxamide] | 2.9 |  | 
32 | COc1ccc(-c2n[nH]c(C(=O)NCCc3ccc(C(=O)N4CCC4)cc3)n2)cc1OC [compound 101, N-(4-(Azetidine-1-carbonyl)phenethyl)-3-(3,4-dimethoxyphenyl)-1H-1,2,4-triazole-5-carboxamide] | 1.3 |  | 
33 | COc1ccc(-c2noc(C(=O)NCCc3ccccc3)n2)cc1OC [compound 106] |  |  | solubility (physchem): 51 µM (≈ 18 µg/mL)
34 | COc1ccc(CCNC(=O)c2nc(-c3ccccc3)no2)cc1OC [compound 107] | 2.8 |  | 
35 | COc1ccc(-c2noc(C(=O)NCCN3CCOCC3)n2)cc1OC [compound 108] | 1.4 |  | 
